Here are results for 14 compounds from US8969356B2, “Compounds useful as inhibitors of ATR kinase” (Vertex Pharmaceuticals Incorporated, priority 2010, dated 2015).

The target in one test is T1, ATR kinase (Homo sapiens, UniProt Q13535).
T1 construct: Assays were carried out at 25° C. in the presence of 5 nM full-length ATR
The test is described as follows: ATR Inhibition Assay (radioactive-phosphate incorporation). It counts as biochemical. As for the experimental part:
Compounds were screened for their ability to inhibit ATR kinase using a radioactive-phosphate incorporation assay. Assays were carried out in a mixture of 50 mM Tris/HCl (pH 7.5), 10 mM MgCl2 and 1 mM DTT. Final substrate concentrations were 10 μM [γ-33P]ATP (3mCi 33P ATP/mmol ATP, Perkin Elmer) and 800 μM target peptide ([…] (SEQ. ID NO: 1)).
Assays were carried out at 25° C. in the presence of 5 nM full-length ATR. An assay stock buffer solution was prepared containing all of the reagents listed above, with the exception of ATP and the test compound of interest. 13.5 μL of the stock solution was placed in a 96 well plate followed by addition of 2 μL of DMSO stock containing serial dilutions of the test compound (typically starting from a final concentration of 15 μM with 3-fold serial dilutions) in duplicate (final DMSO concentration 7%). The plate was pre-incubated for 10 minutes at 25° C. and the reaction initiated by addition of 15 μL [γ-33P]ATP (final concentration 10 μM).
The reaction was stopped after […] by the addition of 30 μL 0.1M phosphoric acid containing 2 mM ATP. A multiscreen phosphocellulose filter 96-well plate (Millipore, Cat no. MAPHN0B50) was pretreated with 100 μL 0.2M phosphoric acid prior to the addition of 45 μL of the stopped assay mixture. The plate was washed with 5×200 μL 0.2M phosphoric acid. After drying, 100 μL Optiphase ‘SuperMix’ liquid scintillation cocktail (Perkin Elmer) was added to the well prior to scintillation counting (1450 Microbeta Liquid Scintillation Counter, Wallac).
After removing mean background values for all of the data points, Ki(app) data were calculated from non-linear regression analysis of the initial rate data using the Prism software package (GraphPad Prism version 3.0cx for Macintosh, GraphPad Software, San Diego Calif., USA).

Test [1] has as its system HCT116 colorectal cancer cells. The test is described as follows: Cisplatin Sensitization Assay (96 h cell viability MTS). It counts as cell-based. Particulars: concentration of compound required to reduce the IC50 of Cisplatin alone by at least 3-fold; HCT116, 96 h MTS. How it is done: Compounds can be screened for their ability to sensitize HCT116 colorectal cancer cells to Cisplatin using a 96 h cell viability (MTS) assay. […] Compounds and Cisplatin are then both added simultaneously to the cell media in 2-fold serial dilutions from a top final concentration of 10 μM as a full matrix of concentrations in a final cell volume of 200 μl, and the cells are then incubated at 37° C. in 5% CO2. After 96 h, 40 μl of MTS reagent (Promega G358a) is added to each well and the cells are incubated for 1 h at 37° C. in 5% CO2.

Bounds are passed on as bounds.

For orientation: Ki means a measure of affinity in units of concentration, obtained from inhibition or displacement. The term inhibition denotes how much of the control response was suppressed.

T1 sequence (Q13535 whole entry): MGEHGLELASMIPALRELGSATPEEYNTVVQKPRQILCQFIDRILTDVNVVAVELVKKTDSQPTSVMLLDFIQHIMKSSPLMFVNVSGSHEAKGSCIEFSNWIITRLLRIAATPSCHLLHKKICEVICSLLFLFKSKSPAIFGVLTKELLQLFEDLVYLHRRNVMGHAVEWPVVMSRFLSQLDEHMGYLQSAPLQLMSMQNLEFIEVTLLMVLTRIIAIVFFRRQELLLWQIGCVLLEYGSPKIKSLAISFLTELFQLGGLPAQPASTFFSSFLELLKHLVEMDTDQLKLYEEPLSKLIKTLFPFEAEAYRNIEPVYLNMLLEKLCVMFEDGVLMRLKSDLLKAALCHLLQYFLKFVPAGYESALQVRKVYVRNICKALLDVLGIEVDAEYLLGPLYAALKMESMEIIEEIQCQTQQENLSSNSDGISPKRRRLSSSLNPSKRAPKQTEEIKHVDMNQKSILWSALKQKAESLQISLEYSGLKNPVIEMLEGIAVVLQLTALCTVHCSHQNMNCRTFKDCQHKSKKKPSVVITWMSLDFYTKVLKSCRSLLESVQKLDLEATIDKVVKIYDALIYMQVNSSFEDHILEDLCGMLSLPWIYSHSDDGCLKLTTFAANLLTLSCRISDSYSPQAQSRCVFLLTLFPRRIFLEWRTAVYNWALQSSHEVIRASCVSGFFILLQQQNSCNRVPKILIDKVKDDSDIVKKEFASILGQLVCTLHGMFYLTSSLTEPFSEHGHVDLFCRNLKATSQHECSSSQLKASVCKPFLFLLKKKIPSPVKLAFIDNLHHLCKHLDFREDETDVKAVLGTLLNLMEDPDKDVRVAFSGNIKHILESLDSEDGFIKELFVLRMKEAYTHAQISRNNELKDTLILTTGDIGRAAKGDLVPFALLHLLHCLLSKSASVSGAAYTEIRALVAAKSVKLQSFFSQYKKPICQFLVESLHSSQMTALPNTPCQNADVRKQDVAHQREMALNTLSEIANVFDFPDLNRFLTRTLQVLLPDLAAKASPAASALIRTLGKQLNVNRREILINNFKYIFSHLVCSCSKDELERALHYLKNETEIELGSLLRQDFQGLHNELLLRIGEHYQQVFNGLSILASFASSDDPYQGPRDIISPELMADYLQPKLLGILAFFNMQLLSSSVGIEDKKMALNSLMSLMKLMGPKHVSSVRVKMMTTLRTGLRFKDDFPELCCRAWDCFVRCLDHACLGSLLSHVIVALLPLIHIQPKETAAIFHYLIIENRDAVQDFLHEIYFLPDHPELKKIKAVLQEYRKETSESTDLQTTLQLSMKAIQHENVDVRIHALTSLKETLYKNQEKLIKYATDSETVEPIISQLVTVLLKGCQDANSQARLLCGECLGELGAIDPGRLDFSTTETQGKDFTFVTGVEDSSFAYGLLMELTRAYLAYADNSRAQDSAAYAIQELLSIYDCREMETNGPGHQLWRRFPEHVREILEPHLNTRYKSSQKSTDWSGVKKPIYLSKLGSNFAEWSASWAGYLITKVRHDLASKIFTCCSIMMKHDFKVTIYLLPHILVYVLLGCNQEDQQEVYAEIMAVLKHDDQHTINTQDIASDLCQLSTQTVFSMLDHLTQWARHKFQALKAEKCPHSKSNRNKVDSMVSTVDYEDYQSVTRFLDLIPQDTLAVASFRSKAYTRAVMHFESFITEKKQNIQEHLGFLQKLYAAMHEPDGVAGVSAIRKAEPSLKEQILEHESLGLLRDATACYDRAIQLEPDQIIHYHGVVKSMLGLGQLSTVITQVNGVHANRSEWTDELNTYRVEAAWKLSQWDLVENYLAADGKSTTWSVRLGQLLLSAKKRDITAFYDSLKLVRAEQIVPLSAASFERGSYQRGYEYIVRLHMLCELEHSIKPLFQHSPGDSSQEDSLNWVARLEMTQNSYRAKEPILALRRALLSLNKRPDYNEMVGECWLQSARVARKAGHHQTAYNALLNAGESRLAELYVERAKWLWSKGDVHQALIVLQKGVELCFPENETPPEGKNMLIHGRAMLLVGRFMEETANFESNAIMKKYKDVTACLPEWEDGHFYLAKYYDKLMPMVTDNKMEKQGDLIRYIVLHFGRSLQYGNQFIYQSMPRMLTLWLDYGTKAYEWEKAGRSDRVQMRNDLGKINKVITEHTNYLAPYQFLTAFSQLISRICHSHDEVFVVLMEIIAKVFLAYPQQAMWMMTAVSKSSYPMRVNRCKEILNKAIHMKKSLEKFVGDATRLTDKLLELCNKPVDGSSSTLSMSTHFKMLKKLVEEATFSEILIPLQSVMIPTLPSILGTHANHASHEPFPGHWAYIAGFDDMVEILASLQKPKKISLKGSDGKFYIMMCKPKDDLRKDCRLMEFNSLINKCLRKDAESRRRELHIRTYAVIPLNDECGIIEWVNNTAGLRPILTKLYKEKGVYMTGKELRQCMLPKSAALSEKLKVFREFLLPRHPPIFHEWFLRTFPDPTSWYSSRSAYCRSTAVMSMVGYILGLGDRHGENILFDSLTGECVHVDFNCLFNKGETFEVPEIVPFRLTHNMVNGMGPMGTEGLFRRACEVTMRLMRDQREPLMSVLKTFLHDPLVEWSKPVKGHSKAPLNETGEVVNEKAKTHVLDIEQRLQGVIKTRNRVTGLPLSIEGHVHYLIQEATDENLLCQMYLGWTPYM

For the compound `Nc1ncc(-c2ccc(S(=O)(=O)C3CCOCC3)cc2)nc1C#Cc1cccc(O)c1` [Compound I-34, 3-[2-[3-Amino-6-(4-tetrahydropyran-4-ylsulfonylphenyl)pyrazin-2-yl]ethynyl]phenol], the Ki at ATR kinase was ≤ 100 nM. For the same compound, the “CP3 Shift” value in test [1] came to 0.079 µM.

Consider `CC(C)S(=O)(=O)c1ccc(-c2cnc(N)c(C#Cc3cccs3)n2)cc1` [Compound I-22, 5-(4-Isopropylsulfonylphenyl)-3-[2-(2-thienyl)ethynyl]pyrazin-2-amine], for which, at ATR kinase, the inhibition constant Ki is ≤ 100 nM. In addition, the “CP3 Shift” value in test [1] was determined as 1.25 µM. The corresponding values for `CC(C)S(=O)(=O)c1ccc(-c2cnc(N)c(C#Cc3ccccn3)n2)cc1` [Compound I-33, 5-(4-Isopropylsulfonylphenyl)-3-[2-(2-pyridyl)ethynyl]pyrazin-2-amine] are ≤ 100 nM and 2.5 µM. The like results for `CC(C)S(=O)(=O)c1ccc(-c2cnc(N)c(C#Cc3ccccc3F)n2)cc1` [Compound I-40, 3-((2-fluorophenyl)ethynyl)-5-(4-(isopropylsulfonyl)phenyl)pyrazin-2-amine] were, in that order, ≤ 100 nM and 2.5 µM.

Turning to `CC(C)S(=O)(=O)c1ccc(-c2cnc(N)c(C#Cc3cccc(O)c3)n2)cc1` [Compound I-35, 3-[2-[3-Amino-6-(4-isopropylsulfonylphenyl)pyrazin-2-yl]ethynyl]phenol], the Ki on ATR kinase was ≤ 100 nM. Moreover, in test [1], the “CP3 Shift” value came to 0.118 µM.

Take `CC(C)S(=O)(=O)c1ccc(-c2cnc(N)c(C#Cc3cccc(N)c3)n2)cc1` [Compound I-21, 3-[2-(3-Aminophenyl)ethynyl]-5-(4-isopropylsulfonylphenyl)pyrazin-2-amine]: the inhibition constant Ki on ATR kinase was ≤ 100 nM. Also, in test [1], the “CP3 Shift” value came to 0.312 µM.

For the compound `CC(C)S(=O)(=O)c1ccc(-c2cnc(N)c(C#CCc3ccccc3)n2)cc1` [Compound I-10, 5-(4-isopropylsulfonylphenyl)-3-(3-phenylprop-1-ynyl)pyrazin-2-amine], the Ki at ATR kinase fell in the range of 1000 to 13000 nM.

For the compound `CC(C)n1cc(-c2cnc(N)c(C#Cc3cccc(O)c3)n2)ccc1=O` [Compound I-16, 5-[5-Amino-6-[2-(3-hydroxyphenyl)ethynyl]pyrazin-2-yl]-1-isopropyl-pyridin-2-one], at ATR kinase, the Ki was ≤ 100 nM. As to `CC(C)S(=O)(=O)c1ccc(-c2cnc(N)c(C#Cc3cccc(OCCN)c3)n2)cc1` [Compound I-25, 3-[2-[3-(2-Aminoethoxy)phenyl]ethynyl]-5-(4-isopropylsulfonylphenyl)pyrazin-2-amine], at ATR kinase, the inhibition constant (Ki) is ≤ 100 nM. As to `CC(C)S(=O)(=O)c1ccc(-c2cnc(N)c(C#Cc3ccccc3)n2)cc1` [Compound I-7, 5-(4-Isopropylsulfonylphenyl)-3-(2-phenylethynyl)pyrazin-2-amine], at ATR kinase, the Ki was ≤ 100 nM. In addition, the “CP3 Shift” value in test [1] came out at 2.5 µM. On to `CC(C)S(=O)(=O)c1ccc(-c2cnc(N)c(C#Cc3cccc(OCCN(C)C)c3)n2)cc1` [Compound I-26, 3-[2-[3-(2-Dimethylaminoethyloxy)phenyl]ethynyl]-5-(4-isopropylsulfonylphenyl)pyrazin-2-amine], for which the Ki at ATR kinase lay within 100 to 1000 nM. `CC(C)S(=O)(=O)c1ccc(-c2cnc(N)c(C#Cc3ccccc3CO)n2)cc1` [Compound I-46, (2-((3-amino-6-(4-(isopropylsulfonyl)phenyl)pyrazin-2-yl)ethynyl)phenyl)methanol]: the inhibition at 15 µM at ATR kinase (at 15 uM) is 30%. For `CC(C)S(=O)(=O)c1ccc(-c2cnc(N)c(C#Cc3cccc(Cl)c3)n2)cc1` [Compound I-9, 3-[2-(3-Chlorophenyl)ethynyl]-5-(4-isopropylsulfonylphenyl)pyrazin-2-amine], the Ki on ATR kinase is ≤ 100 nM. On the same count and under the same terms, in the case of `CC(C)S(=O)(=O)c1ccc(-c2cnc(N)c(C#CC3CC3)n2)cc1` [Compound I-27, 3-(2-Cyclopropylethynyl)-5-(4-isopropylsulfonylphenyl)pyrazin-2-amine] it was 100 to 1000 nM.
